Data from paper PMC2213565 (The Journal of General Physiology, 2008).
Like-named read-outs stand apart in the source and are kept apart here.

How the values were obtained:
5-HT3A-glvM3M4 [1] = target: T1, 5-HT3A-glvM3M4 (Mus musculus, UniProt P23979); experiment: Whole cell patch clamp of HEK293T cells transiently expressing 5-HT3A-glvM3M4; type: cell-based
T1 sequence (P23979 24-326 limits assumed): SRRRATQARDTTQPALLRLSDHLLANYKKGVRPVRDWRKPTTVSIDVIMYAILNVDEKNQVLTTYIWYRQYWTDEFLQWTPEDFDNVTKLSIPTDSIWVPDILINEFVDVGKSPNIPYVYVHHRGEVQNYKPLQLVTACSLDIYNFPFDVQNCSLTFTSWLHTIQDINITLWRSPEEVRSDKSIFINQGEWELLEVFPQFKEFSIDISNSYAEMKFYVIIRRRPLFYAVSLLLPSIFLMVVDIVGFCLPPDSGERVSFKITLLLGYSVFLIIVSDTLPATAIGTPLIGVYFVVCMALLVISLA

5-HT3A [2] = target: T2, 5-HT3A (Mus musculus, UniProt P23979); experiment: Whole cell patch clamp of HEK293T cells transiently expressing 5-HT3A; type: cell-based; conditions: HEK293T cells expressing 5-HT3A
T2 sequence (P23979 24-489): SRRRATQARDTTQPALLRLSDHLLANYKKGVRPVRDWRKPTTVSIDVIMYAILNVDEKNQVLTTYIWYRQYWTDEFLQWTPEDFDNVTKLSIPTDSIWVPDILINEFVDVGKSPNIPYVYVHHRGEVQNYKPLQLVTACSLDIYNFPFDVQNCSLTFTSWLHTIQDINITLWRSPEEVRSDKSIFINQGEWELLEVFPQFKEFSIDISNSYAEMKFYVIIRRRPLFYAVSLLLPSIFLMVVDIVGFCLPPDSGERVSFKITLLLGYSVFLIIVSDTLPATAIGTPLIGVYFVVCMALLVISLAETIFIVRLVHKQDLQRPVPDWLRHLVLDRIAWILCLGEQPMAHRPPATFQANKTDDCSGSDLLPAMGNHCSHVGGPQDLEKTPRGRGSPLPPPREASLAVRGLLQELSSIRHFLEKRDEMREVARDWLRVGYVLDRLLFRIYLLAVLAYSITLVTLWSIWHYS

5-HT3A-glvM3M4 [3] = target: 5-HT3A-glvM3M4 (Mus musculus, UniProt P23979); type: cell-based
5-HT3A [4] = target: T2, 5-HT3A; experiment: Two-electrode voltage clamp of Xenopus oocytes expressing 5-HT3A wild type; type: cell-based
mouse 5-HT3A receptors = conditions: competitive antagonist; ref Costall et al., 1987; cited from earlier work

Question: With NCCc1c[nH]c2ccc(O)cc12 [5-HT, 5-hydroxytryptamine] as the molecule, how does the “whole cell currents evoked” value (5-HT3A-glvM3M4 [1]; HEK293T cells expressing 5-HT3A-glvM3M4, 5-HT 1 μM) read?
Answer: The value was 1 to 5 nA.

Question: And the “whole cell currents evoked” value (5-HT3A [2]; 5-HT 1 μM)?
Answer: The value was 1 to 5 nA.

Question: Which results are given for picrotoxin?
Answer: fold lower IC50 in 5-HT3A-glvM3M4 than in wild type (5-HT3A-glvM3M4 [3]; picrotoxin IC50, 5-HT3A-glvM3M4 versus 5-HT3A-wt): 10 fold; IC50 (5-HT3A-glvM3M4 [3]; read-out: picrotoxin IC50, 5-HT3A-glvM3M4, coapplied with 5-HT EC30 concentration, n = 6): 6.8 ± 1.1 µM; IC50 (5-HT3A [4]; read-out: picrotoxin IC50, 5-HT3A-wt, coapplied with 5-HT EC30 concentration, n = 3): 60 ± 10 µM

Question: Which results are given for COc1ccc([C@@H]2Sc3ccccc3N(CCN(C)C)C(=O)[C@@H]2OC(C)=O)cc1 [diltiazem]?
Answer: IC50 (5-HT3A-glvM3M4 [3]): 12 ± 3 µM; IC50 (5-HT3A [4]): 16 ± 1 µM

Question: Which “inhibition of 5-HT EC70 currents” value (5-HT3A-glvM3M4 [3]; 5-HT3A-glvM3M4, QX-222 20 μM, n = 6) does the source give for Cc1cccc(C)c1NC(=O)C[N+](C)(C)C [QX-222] here?
Answer: The value was 79 ± 2%.

Question: And the “inhibition of 5-HT EC70 currents” value (5-HT3A [4]; 5-HT3A-wt, QX-222 20 μM, n = 6)?
Answer: Its value is 80 ± 4%.

Question: Which “IC50 for inhibition of mouse 5-HT3A receptors” value (mouse 5-HT3A receptors) does the source give for Cc1nccn1CC1CCc2c(c3ccccc3n2C)C1=O (centres unmarked) [ondansetron] here?
Answer: Its value is “high picomolar”.

Question: What about the “inhibition of whole cell currents evoked by 1 μM 5-HT” value (5-HT3A-glvM3M4 [1]; HEK293T cells expressing 5-HT3A-glvM3M4, 100 nM ondansetron) of the same molecule?
Answer: Its value is “totally inhibited”.

Question: And the “inhibition of whole cell currents evoked by 1 μM 5-HT” value (5-HT3A [2]; 100 nM ondansetron)?
Answer: Its value is “totally inhibited”.

Question: What about the “inhibition of 5-HT currents” value (5-HT3A-glvM3M4 [3]; 5-HT3A-glvM3M4, EC30 concentration of 5-HT with ondansetron at 1/3 of the 5-HT concentration, n = 4) of the same molecule?
Answer: The value was 98.8 ± 0.4%.

Question: And the “inhibition of 5-HT currents” value (5-HT3A [4]; 5-HT3A, EC30 concentration of 5-HT with ondansetron at 1/3 of the 5-HT concentration, n = 3)?
Answer: The value was 98.2 ± 0.4%.
